These results are taken from patent publication US20150196490A1 (priority 2011, published 2015).

The subject of this test is sweat production. Conditions: human, in vivo.
For `CCCOC(=O)c1ccc(O)cc1` [Propylparaben], the “greater effectiveness in reducing sweat production than placebo” value is recorded as 245%, the “greater reduction in sweat production than the control group” value (“greater reduction” for short) is 337%, the “reduction in sweat production” value is on record as 177 mg and the “subjects with at least a 30% reduction in sweat production compared to Baseline” value (“subjects with at least a 30% reduction” below) is recorded as 70%.

For the molecule `CCCCCCCCCCCCCC(=O)OC(C)C` [Isopropyl Myristate], the “greater effectiveness in reducing sweat production than placebo” value is 191%, the “greater reduction” value is listed as 195%, the “reduction in sweat production” value was 103 mg and the “subjects with at least a 30% reduction” value came out at 55%.

For the molecule Polysorbate 80, the “greater effectiveness in reducing sweat production than placebo” value is 280%, the “greater reduction” value turned out to be 300%, the “reduction in sweat production” value came out at 159 mg and the “subjects with at least a 30% reduction” value was 80%.
